Laboratory results: publication PMC9224258, “Zinc Coordination Compounds with Benzimidazole Derivatives: Synthesis, Structure, Antimicrobial Activity and Potential Anticancer Application” (International Journal of Molecular Sciences, 2022)
In brackets after ≈: the same amount, converted by molar mass. Where two headings read alike, the source gives them in different places. Each block holds one molecule with its values, some of them ahead of it.

Experiments:
K. pneumoniae ATCC 13883 = experiment: micro-dilution broth MIC; type: cell-based, Klebsiella pneumoniae
Procedure: (§1) The cytotoxic effect of the compounds was evaluated using glioblastoma (T98G), neuroblastoma (SK-N-AS) and lung adenocarcinoma (A549) cell lines and human normal skin fibroblasts (CCD-1059Sk). T98G and SK-N-AS cells were cultured in DMEM, high glucose; A549 cells were cultured in DMEM/F12; and CCD-1059Sk cells were cultured in MEM. All media were supplemented with 10% FBS, 100 U/mL of penicillin and […] of streptomycin (PenStrep). Cells were incubated at 37 °C in a humidified atmosphere of 5% CO2. Stock solutions were prepared by dissolving the compounds in sterile dimethyl sulfoxide (DMSO) to obtain the concentration of 50 mg/mL. The cells were seeded into 96-well sterile plates (Nunc) at a density of 1 × 10^5 cells/mL. After 24 h of incubation, the medium was removed from each well, and then cells were incubated for the next 24 h with different concentrations of the tested compounds (1–100 µg/mL) in respective medium containing 2% FBS. Cytotoxicity of the compounds was evaluated using the MTT assay, which is based on the conversion of 3-(4,5-dimethylthiazol-2-yl)-2,5-diphenyltetrazolium bromide (MTT) into dark-blue formazan crystals. Briefly, after 24 h incubation of cells with varying concentrations of the tested compounds, all culture media were removed from the plates. Cells were washed with PBS, and then 100 µL of medium containing 10% MTT solution (5 mg/mL) was added to each well. After 3 h incubation, 100 µL (per well) of 10% SDS buffer solution was added to solubilize formazan crystals. After overnight incubation, the absorbance was measured at 570 nm using a microplate reader (Epoch, BioTek Instruments). Experiments were repeated twice, and the measurements in each experiment were run in triplicate. The viability of the investigated cells was expressed as a percentage of the viability of the untreated cells, and the results were transformed into IC50 values (expressed as mean ± SD). […] The complexes were screened for antibacterial and antifungal activities by micro-dilution broth method using Mueller–Hinton broth for growth of bacteria or Mueller–Hinton broth with 2% glucose for growth of fungi. Minimal inhibitory concentrations (MICs) of the tested derivatives were evaluated for the panel of the reference microorganisms from the American Type Culture Collection (ATCC), including Gram-negative bacteria (Escherichia coli ATCC 25922, Salmonella Typhimurium ATCC14028, Klebsiella pneumoniae ATCC 13883, Pseudomonas aeruginosa ATCC 9027, Proteus mirabilis ATCC 12453), Gram-positive bacteria (Staphylococcus aureus ATCC 25923, Staphylococcus epidermidis ATCC 12228, Micrococcus luteus ATCC 10240, Enterococcus faecalis ATCC 29212, Bacillus subtilis ATCC 6633, Bacillus cereus ATCC 10876) and fungi (Candida albicans ATCC 10231, Candida parapsilosis ATCC 22019, C. glabrata ATCC 90030).

E. coli ATCC 25922 = experiment: micro-dilution broth MIC; type: cell-based, Escherichia coli
Procedure: as §1

P. mirabilis ATCC 12453 = experiment: micro-dilution broth MIC; type: cell-based, Proteus mirabilis
Procedure: as §1

[1] = system: S. typhimurium ATCC 14028; experiment: micro-dilution broth MIC; type: cell-based, Salmonella Typhimurium; settings: Gram-negative
Procedure: as §1

P. aeruginosa ATCC 9027 = experiment: micro-dilution broth MIC; type: cell-based, Pseudomonas aeruginosa
Procedure: as §1

[2] = system: C. parapsilosis ATCC 22019; experiment: micro-dilution broth MIC; type: cell-based, Candida parapsilosis; settings: yeast
Procedure: as §1

C. glabrata ATCC 2091 = experiment: micro-dilution broth MIC; type: cell-based; settings: yeast
C. albicans ATCC 102231 = experiment: micro-dilution broth MIC; type: cell-based, Candida albicans; settings: yeast
Procedure: as §1

[3] = system: lung adenocarcinoma (A549) cell line; experiment: MTT cytotoxicity assay, A549; type: cell-based, human; settings: MTT assay after 24 h incubation
Procedure: as §1

[4] = system: human normal skin fibroblasts (CCD-1059Sk); experiment: MTT cytotoxicity assay, normal fibroblasts; type: cell-based; settings: MTT assay after 24 h incubation, normal cells
Procedure: as §1

[5] = system: lung adenocarcinoma (A549) cell line; design: method as in earlier work; settings: incubated for 24 h with A549 cells; ref 77 (Zhang F. et al.); cited from earlier work
[6] = system: glioblastoma (T98G) cell line; experiment: MTT cytotoxicity assay, T98G; type: cell-based; settings: MTT assay after 24 h incubation
Procedure: as §1

[7] = system: neuroblastoma (SK-N-AS) cell line; experiment: MTT cytotoxicity assay, SK-N-AS; type: cell-based, human; settings: MTT assay after 24 h incubation
Procedure: as §1

M. luteus ATCC 10240 = experiment: micro-dilution broth MIC; type: cell-based, Micrococcus luteus; settings: M. luteus ATCC 10240; Gram-positive
Procedure: as §1

E. faecalis ATCC 29212 = experiment: micro-dilution broth MIC; type: cell-based, Enterococcus faecalis; settings: E. faecalis ATCC 29212; Gram-positive
Procedure: as §1

B. cereus ATCC 10876 = experiment: micro-dilution broth MIC; type: cell-based, Bacillus cereus; settings: B. cereus ATCC 10876; Gram-positive
Procedure: as §1

S. aureus ATCC 25923 = experiment: micro-dilution broth MIC; type: cell-based, Staphylococcus aureus; settings: S. aureus ATCC 25923; Gram-positive
Procedure: as §1

B. subtilis ATCC 6633 = experiment: micro-dilution broth MIC; type: cell-based, Bacillus subtilis; settings: B. subtilis ATCC 6633; Gram-positive
Procedure: as §1

[8] = system: S. epidermidis ATCC 12228; experiment: micro-dilution broth MIC; type: cell-based, Staphylococcus epidermidis; settings: S. epidermidis ATCC 12228; Gram-positive
Procedure: as §1

MIC (K. pneumoniae ATCC 13883; Klebsiella pneumoniae, ATCC13883, Gram-negative, read-out: MIC): 0.12 µg/mL (≈ 0.362 µM) | MIC (E. coli ATCC 25922; Escherichia coli, ATCC25922, Gram-negative, read-out: MIC): 0.015 µg/mL (≈ 0.0453 µM) | MIC (P. mirabilis ATCC 12453; Proteus mirabilis, ATCC12453, Gram-negative, read-out: MIC): 0.03 µg/mL (≈ 0.0905 µM) | MIC ([1]; Salmonella enterica, read-out: MIC): 0.061 µg/mL (≈ 0.184 µM) | MIC (P. aeruginosa ATCC 9027; Pseudomonas aeruginosa, ATCC9027, Gram-negative, read-out: MIC): 0.49 µg/mL (≈ 1.48 µM)
Structure (SMILES): O=C(O)c1cn(C2CC2)c2cc(N3CCNCC3)c(F)cc2c1=O [Cip, ciprofloxacin, reference compound]

Structure (SMILES): C[C@@H]1[C@H](O)[C@@H](C)/C=C/C=C/CC/C=C/C=C/C=C/C=C/C(O[C@H]2O[C@H](C)[C@@H](O)[C@H](N)[C@@H]2O)CC2O[C@](O)(CC(O)C(O)CCC(O)CC(O)CC(O)CC(=O)O[C@H]1C)CC(O)C2C(=O)O (stereo partly shown) [Nys, nystatin, reference compound]
MIC [2]: 0.24 µg/mL (≈ 0.259 µM) | MIC (C. glabrata ATCC 2091): 0.48 µg/mL (≈ 0.518 µM) | MIC (C. albicans ATCC 102231): 0.24 µg/mL (≈ 0.259 µM)

Structure (SMILES): COc1cc([C@@H]2c3cc4c(cc3[C@@H](O[C@@H]3O[C@@H]5CO[C@@H](C)O[C@H]5[C@H](O)[C@H]3O)[C@H]3COC(=O)[C@H]23)OCO4)cc(OC)c1O [Etoposide, reference compound]
IC50 ([3]; Homo sapiens, A549, read-out: IC50 ± SD, A549): > 100 µg/mL | IC50 ([4]; Homo sapiens, CCD-1059Sk, read-out: IC50 ± SD, CCD-1059-Sk): > 100 µg/mL | median inhibitory concentration (IC50), A549 [5]: 115 µg/mL | IC50 ([6]; Homo sapiens, T98G, read-out: IC50 ± SD, T98G): > 100 µg/mL | IC50 ([7]; Homo sapiens, SK-N-AS, read-out: IC50 ± SD, SK-N-AS): 67.8 ± 2.03 µg/mL (≈ 115 µM)

MIC (K. pneumoniae ATCC 13883; Gram-negative): >1000 µg/mL | MIC (M. luteus ATCC 10240): 500 µg/mL | MIC (E. faecalis ATCC 29212): >1000 µg/mL | MIC (E. coli ATCC 25922; Gram-negative): >1000 µg/mL | MIC (B. cereus ATCC 10876): >1000 µg/mL | MIC (P. mirabilis ATCC 12453; Gram-negative): >1000 µg/mL | MIC (S. aureus ATCC 25923): 1000 µg/mL | MIC (B. subtilis ATCC 6633): >1000 µg/mL | MIC [1]: >1000 µg/mL | MIC [2]: >1000 µg/mL | MIC (P. aeruginosa ATCC 9027; Gram-negative): >1000 µg/mL | MIC [8]: 1000 µg/mL | MIC (C. glabrata ATCC 2091): >1000 µg/mL | MIC (C. albicans ATCC 102231): >1000 µg/mL
Structure (SMILES): [Cl][Zn-2]1([Cl])[n+]2cccc(c2)-c2nc3c(ccc[n+]3[Zn-2]([Cl])([Cl])[n+]3cccc(c3)-c3nc4c(ccc[n+]41)[nH]3)[nH]2 [Complex C3]
IC50 ± SD, A549 [3]: 41.34 ± 2.17 µg/mL | IC50 ± SD, CCD-1059-Sk [4]: 30.84 ± 1.11 µg/mL | IC50 ± SD, T98G [6]: 46.54 ± 1.86 µg/mL | IC50 ± SD, SK-N-AS [7]: 41.60 ± 1.93 µg/mL
